Measured values: US20200002377A1, “COMPOUNDS USEFUL FOR THE TREATMENT AND/OR CARE OF THE SKIN, HAIR, NAILS AND/OR MUCOUS MEMBRANES” (LUBRIZOL ADVANCED MATERIALS, INC., priority 2016, published 2020)
Residues, ends and D or L forms follow the SMILES beside them. *: point of attachment. Palmitoyl = CCCCCCCCCCCCCCCC(=O)*; NHhexadecyl = CCCCCCCCCCCCCCCCN*; Myristoyl = CCCCCCCCCCCCCC(=O)*; NHHex = CCCCCCN*

How the values were obtained:
[1] = test system: Nuclear Factor Kappa B subunit 1 (NFKB1); assay: Innate immune response gene expression in HEKa, real time PCR array; format: cell-based, human; details: 50 μg/ml, 24 h
Experimental: HEKa cells (Life Technologies) are seeded at 6.0×10^5 cells/well in 6-well plates and incubated in culture medium Epillfe™ with defined Growth Supplement (EDGS, Life Technologies), at 37° C. in a water-saturated atmosphere of 95% air and 5% CO2. After 24 hours of incubation under these conditions, medium is removed and cells are incubated with 50 μg/ml (w/v) of a peptide of the invention (see Table 16) in fresh culture medium keeping two wells where HEKa cells are incubated with medium only (basal conditions) at 37° C. and 5% CO2.
After 24 h of incubation, the cells are lysed directly in the wells following the protocol described on the RNeasy™ Mini kit (Qiagen) according to the manufacturer's protocol. The lysed cells are homogenized and the RNases are inactivated. The genomic DNA is removed from the samples by using gDNA Eliminator spin columns (Qiagen). Then the samples are passed through special RNA binding columns (Qiagen) and, after several microcentrifugation washes to eliminate contaminants and impurities, the purified RNA is eluted with 50 μl of ultrapure water. Quantification and analysis of purity of RNA samples are performed after RNA elution with a biophotometer (Eppendorf). 1 μg of high-quality RNA is retrotranscribed with iScript™ advanced (BioRad) in a final volume of 20 μl·Complete reaction mix is incubated in a thermal cycler (Eppendorf) at 42° C. for 30 minutes, and the reactions are stopped at 85° C. for 5 minutes. Complementary DNA is amplified by qPCR in a real-time PCR thermocycler (BioRad) using SYBR®Green supermix (BioRad) and a customized plate for use with SYBR®Green (BioRad). SYBR®Green binds to double-stranded DNA molecules and emits fluorescence which is quantified and is proportional to the amount of the product in the PCR reaction. Cycling conditions in BioRad CFX96™ instrument are 95° C. for 3 minutes, followed by 40 cycles of denaturing at 95° C. for 5 seconds, annealing and elongation at 60° C. for 30 seconds. GAPDH (Glyceraldehyde 3-phosphate dehydrogenase), TBP (TATA box binding protein) and HRPT1 (hypoxanthine phosphoribosyltransferase 1) are used as endogenous controls. Fold change relative to the expression of the sample genes and reference genes is calculated using normalized expression (ΔΔ(Ct)) method with default threshold values using CFX Manager Software (BioRad).
Genes analyzed are Chemokine (C-C motif) Ligand 5 (CCL5), Myeloid Differentiation primary response gene 88 (MyD88), Nuclear Factor Kappa B subunit 1 (NFKB1) and interferon Regulatory Factor 3 (IRF3).

[2] = test system: Staphylococcus epidermidis; assay: Adherence of Staphylococcus epidermidis in keratinocytes (HaCaT) in competition with S. aureus bioparticles; format: cell-based; details: 50 μg/ml, 24 h, basal = 0
Experimental: After that treatment, cells are washed with phosphate-buffered saline (PBS, Sigma) and are then incubated with a solution of Staphylococcus epidermidis (ATCC®12228™, Culture Collections) treated with green-fluorescence calcein AM (Life technologic) and Alexa Fluor 594™ Bioparticles Staphylococcus aureus (ThermoFisher) in PBS for 30 minutes at 37° C. and protected from light. At the end of the incubation period, cells are washed with PBS and fixed in 4% (v/v) paraformaldehyde (PFA, Sigma) for 30 minutes. After rinsing with PBS, the nuclei are stained with Hoechst 33342, trihydrochloride trihydrate (ThermoFisher) in PBS for 10 minutes before analysis.
Cellular imaging is performed by fluorescence microscopy using the Operetta® High Content Imaging System (PerkinElmer). From each fluorescence image, Staphylococcus epidermidis is quantified as a number of spots and normalized against the number of keratinocyte nuclei and the total bacteria number (understood as the addition of detected S. epidermidis spots and S. aureus bioparticles). Each value obtained is normalized respect to basal conditions (non-treated keratinocytes). An image is taken in three different fields per well. 12 representative images from each condition are analyzed with Harmony software (PerkinElmer).
The normalized percentage of Staphylococcus epidermidis respect to basal conditions in treated keratinocytes is represented in Table 17.

| Compound | NFKB1 fold induction respect to basal conditions [1] | S. epidermidis (%), normalized percentage respect to basal conditions [2] [%] |
| --- | --- | --- |
| Ac-EEMQRRGD-NH2 [PEP-16, Ac-Glu-Glu-Met-Gln-Arg-Arg-Gly-Asp-NH2] | 2.47 | 51.11 |
| Ac-EEMQRRTD-NH2 [PEP-21, Ac-Glu-Glu-Met-Gln-Arg-Arg-Thr-Asp-NH2] | 2.39 | 16.21 |
| Ac-EEMNRR-NH2 [PEP-48, Ac-Glu-Glu-Met-Asn-Arg-Arg-NH2] | 1.48 | 18.02 |
| Ac-EEMQRK-OH [PEP-62, Ac-Glu-Glu-Met-Gln-Arg-Lys-OH] | 1.40 | 6.78 |
| CCCCCCNC(=O)[C@H](CC(=O)O)NC(=O)[C@H](C)NC(=O)[C@H](CCCNC(=N)N)NC(=O)[C@H](CCCNC(=N)N)NC(=O)[C@H](CCC(N)=O)NC(=O)[C@H](CCSC)NC(=O)[C@H](CCC(=O)O)NC(=O)[C@H](CCC(=O)O)NC(C)=O [PEP-34, Ac-Glu-Glu-Met-Gln-Arg-Arg-Ala-Asp-NHC6H13] (Ac-EEMQRRAD-NHHex) | 2.59 | 61.59 |
| Ac-EEMERRA-NH2 [PEP-39, Ac-Glu-Glu-Met-Glu-Arg-Arg-Ala-NH2] | 2.62 | 71.97 |
| CCCCCCCCCCCCCCCC(=O)N[C@@H](CCC(=O)O)C(=O)N[C@@H](CCC(=O)O)C(=O)N[C@@H](CCSC)C(=O)N[C@@H](CCC(N)=O)C(=O)N[C@@H](CCCNC(=N)N)C(=O)N[C@@H](CCCNC(=N)N)C(N)=O [PEP-6, Palm-Glu-Glu-Met-Gln-Arg-Arg-NH2] (Palmitoyl-EEMQRR-NH2) | 2.62 | 29.75 |
| Ac-EEMERR-NH2 [PEP-47, Ac-Glu-Glu-Met-Glu-Arg-Arg-NH2] | 2.12 | 2.91 |
| Ac-EEMERRAD-OH [PEP-31, Ac-Glu-Glu-Met-Glu-Arg-Arg-Ala-Asp-OH] | 2.24 | 29.41 |
| CCCCCCCCCCCCCCCC(=O)N[C@@H](CCC(=O)O)C(=O)N[C@@H](CCC(=O)O)C(=O)N[C@@H](CCSC)C(=O)N[C@@H](CCC(N)=O)C(=O)N[C@@H](CCCNC(=N)N)C(=O)N[C@@H](CCCNC(=N)N)C(=O)N[C@@H](C)C(=O)N[C@@H](CC(N)=O)C(N)=O [PEP-28, Palm-Glu-Glu-Met-Gln-Arg-Arg-Ala-Asn-NH2] (Palmitoyl-EEMQRRAN-NH2) | 2.65 | 39.68 |
| Ac-EEMDRRAD-NH2 [PEP-13, Ac-Glu-Glu-Met-Asp-Arg-Arg-Ala-Asp-NH2] | 2.60 | 21.79 |
| CCCCCCCCCCCCCC(=O)N[C@@H](CCC(=O)O)C(=O)N[C@@H](CCC(=O)O)C(=O)N[C@@H](CCSC)C(=O)N[C@@H](CCC(N)=O)C(=O)N[C@@H](CCCNC(=N)N)C(=O)N[C@@H](CCCNC(=N)N)C(N)=O [PEP-5, Myr-Glu-Glu-Met-Gln-Arg-Arg-NH2] (Myristoyl-EEMQRR-NH2) | 2.64 | 27.52 |
| CCCCCCCCCCCCCCCCNC(=O)[C@H](CCCNC(=N)N)NC(=O)[C@H](CCCNC(=N)N)NC(=O)[C@H](CCC(N)=O)NC(=O)[C@H](CCSC)NC(=O)[C@H](CCC(=O)O)NC(=O)[C@H](CCC(=O)O)NC(C)=O [PEP-7, Ac-Glu-Glu-Met-Gln-Arg-Arg-NHC16H33] (Ac-EEMQRR-NHhexadecyl) | 3.09 | 11.43 |
| Ac-EEMQRRSD-NH2 [PEP-15, Ac-Glu-Glu-Met-Gln-Arg-Arg-Ser-Asp-NH2] | 2.57 | 15.10 |
| Ac-QEMQRRAD-OH [PEP-32, Ac-Gln-Glu-Met-Gln-Arg-Arg-Ala-Asp-OH] | 2.56 | 13.89 |
| Ac-EELQRR-OH [PEP-63, Ac-Glu-Glu-Leu-Gln-Arg-Arg-OH] | 1.50 |  |
| Ac-EEMDRRA-NH2 [PEP-42, Ac-Glu-Glu-Met-Asp-Arg-Arg-Ala-NH2] | 2.70 | 12.36 |
| Ac-EEMERRAD-NH2 [PEP-11, Ac-Glu-Glu-Met-Glu-Arg-Arg-Ala-Asp-NH2] | 2.63 | 4.24 |
| CCCCCCCCCCCCCCCC(=O)N[C@@H](CCC(=O)O)C(=O)N[C@@H](CCC(=O)O)C(=O)N[C@@H](CCSC)C(=O)N[C@@H](CCC(N)=O)C(=O)N[C@@H](CCCNC(=N)N)C(=O)N[C@@H](CCCCN)C(N)=O [PEP-59, Palm-Glu-Glu-Met-Gln-Arg-Lys-NH2] (Palmitoyl-EEMQRK-NH2) | 1.77 | 4.63 |

| Compound | NFKB1 fold induction respect to basal conditions [1] | S. epidermidis (%), normalized percentage respect to basal conditions [2] [%] |
| --- | --- | --- |
| CCCCCCCCCCCCCCCCNC(=O)[C@H](CC(=O)O)NC(=O)[C@H](C)NC(=O)[C@H](CCCNC(=N)N)NC(=O)[C@H](CCCNC(=N)N)NC(=O)[C@H](CCC(N)=O)NC(=O)[C@H](CCSC)NC(=O)[C@H](CCC(=O)O)NC(=O)[C@H](CCC(=O)O)NC(C)=O [PEP-35, Ac-Glu-Glu-Met-Gln-Arg-Arg-Ala-Asp-NHC16H33] (Ac-EEMQRRAD-NHhexadecyl) | 2.79 | 90.22 |
| H-Glu-Glu-Met-Gln-Arg-Arg-NHC16H33 (H-EEMQRR-NHhexadecyl) [PEP-67] |  | 14.91 |
| Ac-EEMQRRAD-OH [PEP-4, Ac-Glu-Glu-Met-Gln-Arg-Arg-Ala-Asp-OH] | 2.55 | 25.36 |
| Ac-EEMQKK-NH2 [PEP-54, Ac-Glu-Glu-Met-Gln-Lys-Lys-NH2] | 2.15 | 10.91 |
| Ac-EEMQRRAE-NH2 [PEP-17, Ac-Glu-Glu-Met-Gln-Arg-Arg-Ala-Glu-NH2] | 2.32 | 11.33 |
| Ac-EEMQRRV-NH2 [PEP-44, Ac-Glu-Glu-Met-Gln-Arg-Arg-Val-NH2] | 1.24 |  |
| CCCCCCCCCCCCCCCC(=O)N[C@@H](CCC(=O)O)C(=O)N[C@@H](CCC(=O)O)C(=O)N[C@@H](CCSC)C(=O)N[C@@H](CCC(N)=O)C(=O)N[C@@H](CCCNC(=N)N)C(=O)N[C@@H](CCCNC(=N)N)C(=O)N[C@@H](C)C(=O)N[C@@H](CC(=O)O)C(N)=O [PEP-27, Palm-Glu-Glu-Met-Gln-Arg-Arg-Ala-Asp-NH2] (Palmitoyl-EEMQRRAD-NH2) | 2.76 | 27.62 |
| Ac-EEMNRRAD-NH2 [PEP-12, Ac-Glu-Glu-Met-Asn-Arg-Arg-Ala-Asp-NH2] | 2.58 | 14.00 |
| Ac-DEMERRA-NH2 [PEP-40, Ac-Asp-Glu-Met-Glu-Arg-Arg-Ala-NH2] | 2.55 | 20.56 |
| Ac-EELQRRAD-NH2 [PEP-10, Ac-Glu-Glu-Leu-Gln-Arg-Arg-Ala-Asp-NH2] | 2.46 | 11.54 |
| H-EEMQRRAN-NH2 [PEP-25, H-Glu-Glu-Met-Gln-Arg-Arg-Ala-Asn-NH2] | 2.31 |  |
| Ac-EEMQRH-NH2 [PEP-53, Ac-Glu-Glu-Met-Gln-Arg-His-NH2] | 3.37 |  |
| CCCCCCNC(=O)[C@H](CCCNC(=N)N)NC(=O)[C@H](CCCNC(=N)N)NC(=O)[C@H](CCC(N)=O)NC(=O)[C@H](CCSC)NC(=O)[C@H](CCC(=O)O)NC(=O)[C@H](CCC(=O)O)NC(C)=O [PEP-64, Ac-Glu-Glu-Met-Gln-Arg-Arg-NHC6H13] (Ac-EEMQRR-NHHex) | 1.75 |  |
| Ac-EEMQRRAE-OH [PEP-30, Ac-Glu-Glu-Met-Gln-Arg-Arg-Ala-Glu-OH] | 2.53 |  |
| CCCCCCNC(=O)[C@H](CCCNC(=N)N)NC(=O)[C@H](CCCNC(=N)N)NC(=O)[C@H](CCC(N)=O)NC(=O)[C@H](CCSC)NC(=O)[C@H](CCC(=O)O)NC(=O)[C@@H](N)CCC(=O)O [PEP-65, H-Glu-Glu-Met-Gln-Arg-Arg-NCH6H13] (H-EEMQRR-NHHex) | 2.41 |  |
| CCCCCCCCCCCCCCCC(=O)N[C@@H](CCC(=O)O)C(=O)N[C@@H](CCC(=O)O)C(=O)N[C@@H](CCSC)C(=O)N[C@@H](CCC(N)=O)C(=O)N[C@@H](CCCNC(=N)N)C(=O)N[C@@H](Cc1c[nH]cn1)C(N)=O [PEP-58, Palm-Glu-Glu-Met-Gln-Arg-His-NH2] (Palmitoyl-EEMQRH-NH2) | 1.87 |  |
| Ac-QEMQRR-NH2 [PEP-52, Ac-Gln-Glu-Met-Gln-Arg-Arg-NH2] | 2.57 |  |
| Ac-Glu-Glu-Leu-Gln-Arg-Arg-NH2 (Ac-EELQRR-NH2) [PEP-66] |  | 45.38 |
